For orientation: IC50 means the concentration that gives 50% inhibition. What is called EC50 is the concentration giving half of the maximal effect.

The target of series [1] is T1, monkey MRGPRX2 (Cynomolgus macaques) (Macaca fascicularis, UniProt Q5U9D9).
T1 construct: expressed in transfected cells; host or cells: U2OS transduced with BacMam virus
T1 sequence (Q5U9D9 1-330): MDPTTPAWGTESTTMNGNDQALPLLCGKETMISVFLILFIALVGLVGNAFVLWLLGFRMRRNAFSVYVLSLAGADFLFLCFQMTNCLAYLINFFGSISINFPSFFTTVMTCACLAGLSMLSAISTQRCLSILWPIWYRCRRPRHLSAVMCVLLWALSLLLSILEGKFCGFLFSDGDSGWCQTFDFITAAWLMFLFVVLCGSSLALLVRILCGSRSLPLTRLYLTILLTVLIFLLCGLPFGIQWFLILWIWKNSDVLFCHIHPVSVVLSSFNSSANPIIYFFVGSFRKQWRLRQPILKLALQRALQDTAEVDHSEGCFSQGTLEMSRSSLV
Nature of the series: Calcium mobilization in BacMam-transduced U2OS cells. The series is classed as cell-based. Conditions: for Antagonist activity: likely due to receptor desensitization upon activation and not real antagonism. The protocol:
(§1) Cell culture reagents were purchased from Thermo Fisher Scientific unless otherwise stated. The LAD2 human mast cell line was in-licensed from National Institutes of Health (NIH) and routinely cultured in StemPro™-34 SFM with nutrient supplement, 1× GlutaMax™, and recombinant human SCF (100 ng/mL). HEK293-MRGPRX2/Gα15 cells were cultured in DMEM containing 10% FBS. The parental U2OS cells were culture in DMEM/F-12 containing 10% FBS. BacMam virus containing human MRGPRX2 gene or animal orthologs [mouse Mrgprb2 (Gene ID: 243979), rat Mrgprb3 (Gene ID: 691194), dog MRGPRX2 (Gene ID: 102125889), cynomolgus monkey MRGPRX2 (Gene ID: 692078), and rhesus monkey MRGPRX2] were used to transduce U2OS cells for transient expression.
(§2) Supplemental Table 1: Compound A and Compound B are human MRGPRX2 selective antagonists. Antagonist and agonist activities of the two compounds were determined in calcium mobilization assays for human MRGPRX2 and its animal orthologs from various species. The activities were measured in […] (Molecular Devices) instrument using U2OS cells transduced with BacMam virus for transient expression of the relevant receptors. Data are presented as mean ± SEM when applicable.
(§3) Compound A and Compound B up to the highest concentration (100 µM) tested. In the antagonist […]
(§4) Compound A and B, respectively. […]
(§5) MRGPRX2 and Gα15 proteins (Fig. 1). On monkey MRGPRX2 receptors (both Cynomolgus […]
(§6) receptor desensitization upon activation and not real antagonism. […]
On the technique in general: Calcium assays in cells follow changes in intracellular calcium, usually with a dye or a luminescent sensor.

The target of series [2] is T2, monkey MRGPRX2 (Rhesus macaques) (Macaca mulatta, UniProt Q4QXU5).
T2 construct: expressed in transfected cells; host or cells: U2OS transduced with BacMam virus
The description is as above. The series is classed as cell-based. The following applies: for Antagonist activity: likely due to receptor desensitization upon activation and not real antagonism. The protocol: as §1, §2, §3, §4, §5, §6

Series [3] deals with T3, C3aR1 (Homo sapiens, UniProt Q16581).
T3 sequence (Q16581 1-482): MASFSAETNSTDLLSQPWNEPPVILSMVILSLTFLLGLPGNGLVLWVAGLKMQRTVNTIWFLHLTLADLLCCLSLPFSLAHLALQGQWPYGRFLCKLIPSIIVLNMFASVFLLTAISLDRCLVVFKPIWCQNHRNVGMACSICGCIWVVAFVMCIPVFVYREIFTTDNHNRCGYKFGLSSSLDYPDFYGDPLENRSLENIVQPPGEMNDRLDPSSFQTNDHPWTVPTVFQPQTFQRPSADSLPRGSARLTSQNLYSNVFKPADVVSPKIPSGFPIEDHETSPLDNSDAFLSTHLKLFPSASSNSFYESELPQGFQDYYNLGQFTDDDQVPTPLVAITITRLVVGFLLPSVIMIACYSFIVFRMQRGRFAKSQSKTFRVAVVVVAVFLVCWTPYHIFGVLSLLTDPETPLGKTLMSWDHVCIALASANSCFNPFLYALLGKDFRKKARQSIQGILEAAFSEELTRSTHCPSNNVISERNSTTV
The following applies: for Effect on C3a-stimulated LAD2 degranulation: increasing concentrations of antagonist.
Text: Release of β-hexosaminidase from LAD2 cells was followed as a measurement of mast cell degranulation using a method described previously ([4]).
Potency data are presented as mean ± SEM.

The target in series [4] is T4, MRGPRX2 (Homo sapiens, UniProt Q96LB1).
T4 sequence (Q96LB1 1-330): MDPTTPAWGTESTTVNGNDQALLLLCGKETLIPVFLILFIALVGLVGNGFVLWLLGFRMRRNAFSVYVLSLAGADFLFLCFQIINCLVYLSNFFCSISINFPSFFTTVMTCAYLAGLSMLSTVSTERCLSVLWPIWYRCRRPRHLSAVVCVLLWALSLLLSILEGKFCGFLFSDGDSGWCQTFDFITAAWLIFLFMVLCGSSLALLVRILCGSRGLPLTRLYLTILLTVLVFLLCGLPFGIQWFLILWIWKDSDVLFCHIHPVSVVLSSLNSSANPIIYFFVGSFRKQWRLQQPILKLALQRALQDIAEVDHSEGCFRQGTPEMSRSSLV
Nature of the series: Human ex vivo skin microdialysis, Substance P-stimulated histamine release. The series is classed as cell-based. Conditions: Substance P 50 μM; three donors.
Experimental: Microdialysis probes with a 3,000-kDa molecular weight cutoff (EP Medical, Copenhagen, Denmark) were primed for 1 h using a basal perfusate consisting of 0.1% human serum albumin in piperazine-N,N′-bis(2-ethanesulfonic acid) (PIPES) buffer to minimize non-specific adsorption to probe components.
Skin specimens measuring approximately 4 cm × 14 cm were excised from the parent skin sample, and subcutaneous fat was removed mechanically. The skin specimens were fixated on Styrofoam and guide cannulas (21G) were inserted intradermally at least 1 cm apart and ≥ 1 cm from the edge of the skin specimen. Ten probes were introduced into each skin specimen by means of the guide cannulas with an intradermal probe span of 20 mm. Probes were perfused at a flow rate of 3.0 μL/min (used throughout the experiment) for 30 min using basal perfusate in order to remove any unspecific histamine release caused by insertion trauma.
Next, the dialysate was collected for 10 min to assess basal skin histamine levels (“basal”). The probes were then switched to perfusion with a perfusate containing antagonists at different concentrations for 60 min to pre-treat the skin specimens and evaluate potential off-target effects, which could present as histamine release caused by antagonist itself (“pre-treatment”). […] Histamine in the dialysates was quantified as described above. […]

In series [5] the target is T4, MRGPRX2. Nature of the series: Ca2+ mobilization assay (FLIPR TETRA) in HEK293-MRGPRX2/Gα15 cells. In kind it is cell-based. Also on record: expressed in transfected cells. Conditions: for EC50: agonist mode, highest concentration tested 30 μM, read-out: Activation of Ca2+ Mobilization EC50. The protocol:
A Ca^2+ mobilization assay was used to screen for small-molecule compounds with agonist or antagonist activity against human MRGPRX2 using HEK293-MRGPRX2/Gα15 cells. Two million small-molecule compounds in GSK collection were screened at single concentration of 10 μM on FLIPR^TETRA (Molecular Devices) instruments in dual detection mode for both activation and inhibition activities. Cortistatin 14 at approximately EC80 concentration was used as the activation ligand for the inhibition phase of the high-throughput screening. Compounds of interest were followed up and characterized in concentration response curves to determine their mode of activity, potency, and selectivity.
Figure 1 Identification of two structurally distinct MRGPRX2 antagonists: Compound (A) and Compound (B). Calcium mobilization assays were performed in FLIPR^TETRA (Molecular Devices) with two novel MRGPRX2 antagonists using HEK293 cells overexpressing MRGPRX2 and Gα15 proteins. […] Dose-dependent inhibition (A) of Cortistatin 14–mediated MRGPRX2 activation was measured, and antagonist potencies (B) are presented as mean ± SEM of 66 or 22 independent experiments for Compound A and Compound B, respectively.

Series [6] relates to ion channel and enzyme targets. As to the kind of experiment: In vitro assays of the human safety prediction panel. The following applies: data not shown. The source says:
Among them, the NK1 receptor with which SP is the canonical and high-affinity endogenous ligand.

Read-outs that look alike come from different tables or passages of the source. Some results are limits rather than exact numbers.

T2 sequence (Q4QXU5 whole entry): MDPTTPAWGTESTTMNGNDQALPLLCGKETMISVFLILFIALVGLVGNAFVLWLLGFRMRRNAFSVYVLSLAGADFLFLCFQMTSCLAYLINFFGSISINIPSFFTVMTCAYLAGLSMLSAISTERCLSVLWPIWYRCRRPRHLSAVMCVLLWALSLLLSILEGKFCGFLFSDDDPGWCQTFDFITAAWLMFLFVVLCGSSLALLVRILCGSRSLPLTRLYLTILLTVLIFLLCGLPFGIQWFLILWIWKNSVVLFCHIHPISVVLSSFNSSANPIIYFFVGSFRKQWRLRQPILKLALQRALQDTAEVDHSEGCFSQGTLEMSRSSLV

Turning to `CC1(C)C(C(=O)Nc2ccccn2)C1(C)C` [Compound A], in series [1], the Agonist activity result was “weak agonist activities” and the Antagonist activity result is listed as “very weak antagonist activities”. Further, in series [2], the Agonist activity entry was “weak agonist activities” and the Antagonist activity entry is listed as “very weak antagonist activities”. In addition, in series [3], the IC50 is more than 50 µM and the “Effect on C3a-stimulated LAD2 degranulation” value is recorded as “lack of an effect”. For the same compound, the “Concentration achieving complete blockade of Substance P response (histamine release)” value in series [4] turned out to be 3 µM. Moreover, in series [5], the IC50 was determined as 0.05 µM and the EC50 is more than 30 µM. The “Activity on ion channel and enzyme targets” value in series [6] was “inactive”.

Consider `C[C@@H](C(=O)Nc1cnc(Oc2ccc(F)cc2F)cn1)N1CCC(F)(F)[C@@H](c2cc[n+]([O-])cc2)C1` [Compound B], for which the Agonist activity result in series [1] and in series [2] was “weak agonist activities” in each case. Moreover, the Antagonist activity result in series [1] and in series [2] was “very weak antagonist activities” in each case. The IC50 was more than 50 µM in series [3] and 0.0029 µM in series [5] (Cortistatin 14 at approx. EC80, mean ± SEM of 66 (Compound A) or 22 (Compound B) experiments, read-out: Inhibition of Cort-14 Mediated MRGPRX2 Activation IC50). In addition, the “Effect on C3a-stimulated LAD2 degranulation” value in series [3] was “lack of an effect”. Further, the “Concentration achieving complete blockade of Substance P response (histamine release)” value in series [4] came to 0.03 µM. The EC50 in series [5] was more than 30 µM. Also, the “Activity on ion channel and enzyme targets” value in series [6] is “inactive”.

The values above are taken from PMC11527646, “Pharmacological blockade of the mast cell MRGPRX2 receptor supports investigation of its relevance in skin disorders” (Frontiers in Immunology, 2024).
